Source: US10508120B2, “TYK2 inhibitors and uses thereof” (Nimbus Lakshmi, Inc., priority 2017, dated 2019)
Like-named read-outs stand apart in the source and are kept apart here.

How the values were obtained:
JAK2 kinase domain (JH1) = JAK2 kinase domain (JH1) (Homo sapiens (Human), UniProt O60674); test: JAK2 Radioactive Kinase Assay; assay type: biochemical; details: for inhibition at 10 µM: read-out: JAK2 JH1% Inhibition @ 10 μM
Outline: (§1)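 Single-point screen: 10 μM test compound, radioactive kinase read-out, percent inhibition reported for each kinase domain.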

Tyk2 kinase domain (DH1) = Tyk2 kinase domain (DH1) (Homo sapiens (Human), UniProt P29597); test: Tyk2 Radioactive Kinase Assay; assay type: biochemical; details: for inhibition at 10 µM: read-out: Tyk2 JH1% Inhibition @ 10 μM
Outline: as §1

[1] = target: human TYK2 (JH2domain-pseudokinase) (Homo sapiens (Human), UniProt P29597); test: TYK2 JH2 Domain Binding Assay (KINOMEscan)
Outline: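 Competition binding of a DNA-tagged fusion of human TYK2 JH2 pseudokinase (G556–D888) with NFkB DNA-binding domain, from HEK293 extracts (<0.1 nM final), against immobilised ligand beads; 1 h shaking at room temperature, 0.9% DMSO. Bound kinase quantified by qPCR.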

Sequence of human TYK2 (JH2domain-pseudokinase) (P29597 556-888): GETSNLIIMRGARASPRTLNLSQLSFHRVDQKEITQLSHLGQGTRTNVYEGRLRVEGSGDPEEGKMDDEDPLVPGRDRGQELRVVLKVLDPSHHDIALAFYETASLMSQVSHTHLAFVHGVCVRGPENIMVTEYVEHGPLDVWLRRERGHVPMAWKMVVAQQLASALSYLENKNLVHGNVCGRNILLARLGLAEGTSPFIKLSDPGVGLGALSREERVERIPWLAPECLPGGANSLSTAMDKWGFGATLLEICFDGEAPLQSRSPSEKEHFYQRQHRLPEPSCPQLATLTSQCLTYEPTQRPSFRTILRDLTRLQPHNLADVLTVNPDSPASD
Sequence of Tyk2 kinase domain (DH1) (P29597 897-1176): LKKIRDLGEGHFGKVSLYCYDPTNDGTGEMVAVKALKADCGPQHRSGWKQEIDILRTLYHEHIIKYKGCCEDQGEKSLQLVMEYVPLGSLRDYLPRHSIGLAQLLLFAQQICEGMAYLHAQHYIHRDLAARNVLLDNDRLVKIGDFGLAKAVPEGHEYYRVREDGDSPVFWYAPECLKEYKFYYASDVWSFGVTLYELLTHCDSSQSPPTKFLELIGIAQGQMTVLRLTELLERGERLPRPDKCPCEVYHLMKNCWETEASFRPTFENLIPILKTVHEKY
Sequence of JAK2 kinase domain (JH1) (O60674 849-1124): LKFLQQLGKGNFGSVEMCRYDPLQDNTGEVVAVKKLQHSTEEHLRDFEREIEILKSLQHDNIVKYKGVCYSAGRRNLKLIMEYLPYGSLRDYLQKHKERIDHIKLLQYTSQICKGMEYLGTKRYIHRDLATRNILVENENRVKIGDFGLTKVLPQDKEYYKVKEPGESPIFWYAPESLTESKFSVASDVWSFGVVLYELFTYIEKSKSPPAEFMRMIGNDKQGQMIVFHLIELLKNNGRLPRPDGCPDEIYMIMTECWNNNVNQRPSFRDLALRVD

inhibition at 10 µM (JAK2 kinase domain (JH1); compound at 10 μM, ATP 10 μM) [%]	inhibition at 10 µM (Tyk2 kinase domain (DH1); compound at 10 μM, ATP 10 μM) [%]	Kd [1] [nM]	inhibition at 10 µM (JAK2 kinase domain (JH1); 10 μM compound, 10 μM ATP) [%]	inhibition at 10 µM (Tyk2 kinase domain (DH1); 10 μM compound, 10 μM ATP) [%]	Compound	JAK2 JH1% Inhibition @ 10 μM (JAK2 kinase domain (JH1); compound at 10 μM, ATP 10 μM)	Tyk2 JH1% Inhibition @ 10 μM (Tyk2 kinase domain (DH1); compound at 10 μM, ATP 10 μM)
< 50	< 50	> 10	–	–	CNc1cc(Nc2cccn(-c3ccn(C4CC4)n3)c2=O)nc2c(C(=O)NC3COC3)cnn12 [I-89, 5-((1-(1-cyclopropyl-1H-pyrazol-3-yl)-2-oxo-1,2-dihydropyridin-3-yl)amino)-7-(methylamino)-N-(oxetan-3-yl)pyrazolo[1,5-a]pyrimidine-3-carboxamide]	–	–
–	–	> 10	< 50	< 50	CNc1cc(Nc2cccn([C@@H]3CCCC[C@@H]3OC)c2=O)nc2c(C(=O)NC3CC3)cnn12 [I-989]	–	–
–	–	1 to 10	< 50	< 50	CNc1cc(-c2cn(CCN3CCCCC3)c3ncccc23)nc2c(C(=O)N[C@@H]3CC[C@@H]3O)cnn12 [I-874]	–	–
< 50	< 50	< 0.2	–	–	CNc1cc(Nc2cccn(-c3ncccc3F)c2=O)nc2c(C(=O)NCC(C)CO)cnn12 (stereo not drawn) [I-593, 5-((3′-fluoro-2-oxo-2H-[1,2′-b]pyridinyl-3-yl)amino)-N-(3-hydroxy-2-methylpropyl)-7-(methylamino)pyrazolo[1,5-a]pyrimidine-3-carboxamide]	–	–
< 50	< 50	< 0.2	–	–	CNc1cc(Nc2cccnc2OC)nc2c(C(=O)NCC(C)CO)cnn12 (stereo not drawn) [I-434, N-(3-hydroxy-2-methylpropyl)-5-((2-methoxypyridin-3-yl)amino)-7-(methylamino)pyrazolo[1,5-a]pyrimidine-3-carboxamide]	–	–
70 to 90	< 50	1 to 10	–	–	NC(=O)c1cnn2c(N)cc(Nc3cccc(N4CCCC4)c3Cl)nc12 [I-23]	–	–
–	–	< 0.2	< 50	< 50	CNc1cc(Nc2cc(Cl)cn(C3CCN(C)CC3)c2=O)nc2c(C(=O)N[C@H]3CC[C@@H]3O)cnn12 [I-931]	–	–
–	–	< 0.2	–	–	CNc1cc(Nc2cccn(CCOC3CC3)c2=O)nc2c(C(=O)N[C@@H]3CC[C@H]3O)cnn12 [I-513]	A (percent inhibition at 10 μM lower than 50)	A (percent inhibition at 10 μM lower than 50)
–	–	0.2 to 1	< 50	< 50	CNc1cc(Nc2cccn([C@@H]3CCN(C)CC3(F)F)c2=O)nc2c(C(=O)NC3CC3)cnn12 [I-824]	–	–
–	–	< 0.2	< 50	< 50	CNc1cc(Nc2cccn(-c3ccccc3F)c2=O)nc2c(C(=O)N[C@@H]3CC[C@H]3O)cnn12 [I-1039]	–	–
< 50	< 50	< 0.2	–	–	CNc1cc(Nc2cccn(-c3ccccn3)c2=O)nc2c(C(=O)NCC(C)(C)CO)cnn12 [I-683, N-(3-hydroxy-2,2-dimethylpropyl)-7-(methylamino)-5-((2-oxo-2H-[1,2′-bipyridin]-3-yl)amino)pyrazolo[1,5-a]pyrimidine-3-carboxamide]	–	–
< 50	< 50	0.2 to 1	–	–	CNc1cc(Nc2cccn(C3CCCN(C)C3)c2=O)nc2c(C(=O)NC3CC3)cnn12 (stereo not drawn) [I-471]	–	–
–	–	< 0.2	< 50	< 50	CNc1cc(Nc2cc(Cl)cn(C3CCOCC3)c2=O)nc2c(C(=O)N[C@H]3CC[C@H]3O)cnn12 [I-1068]	–	–
< 50	< 50	< 0.2	–	–	CNc1cc(Nc2cccn(CCOC)c2=O)nc2c(C(=O)N[C@H]3C[C@H]3F)cnn12 [I-268]	–	–
–	–	< 0.2	< 50	< 50	CNc1cc(Nc2cccn([C@H]3CC[C@H](OC)CC3)c2=O)nc2c(C(=O)N[C@@H]3COC[C@@H]3O)cnn12 [I-831]	–	–
–	–	> 10	< 50	< 50	CNc1cc(Nc2cccn(C(C)C)c2=O)nc2c(C(=O)N[C@H]3CC[C@@]3(C)O)cnn12 (stereo in doubt) [I-1116, N-(2-hydroxy-2-methylcyclobutyl)-5-((1-isopropyl-2-oxo-1,2-dihydropyridin-3-yl)amino)-7-(methylamino)pyrazolo[1,5-a]pyrimidine-3-carboxamide]	–	–
< 50	< 50	< 0.2	–	–	CNc1cc(Nc2cccn(-c3ccc(C(=O)N4CCCC4)cn3)c2=O)nc2c(C(N)=O)cnn12 [I-45]	–	–
–	–	0.2 to 1	< 50	< 50	CNc1cc(Nc2cccn([C@H]3CCC[C@@H](OC)C3)c2=O)nc2c(C(=O)NCC3(CO)CC3)cnn12 [I-928]	–	–
< 50	< 50	1 to 10	–	–	CNc1cc(-c2nn(CCN3CCN(C)CC3)c3ncccc23)nc2c(C(=O)NC3CC3)cnn12 [I-479]	–	–
< 50	< 50	0.2 to 1	–	–	NC(=O)c1cnn2c(N)cc(Nc3cccn(-c4ccc(F)cn4)c3=O)nc12 [I-52]	–	–

inhibition at 10 µM (JAK2 kinase domain (JH1); compound at 10 μM, ATP 10 μM) [%]	inhibition at 10 µM (Tyk2 kinase domain (DH1); compound at 10 μM, ATP 10 μM) [%]	Kd [1] [nM]	inhibition at 10 µM (JAK2 kinase domain (JH1); 10 μM compound, 10 μM ATP) [%]	inhibition at 10 µM (Tyk2 kinase domain (DH1); 10 μM compound, 10 μM ATP) [%]	Compound	JAK2 JH1% Inhibition @ 10 μM (JAK2 kinase domain (JH1); compound at 10 μM, ATP 10 μM)	Tyk2 JH1% Inhibition @ 10 μM (Tyk2 kinase domain (DH1); compound at 10 μM, ATP 10 μM)
< 50	< 50	0.2 to 1	–	–	CNc1cc(Nc2cc(C)cn(-c3ccn(C)n3)c2=O)nc2c(C(=O)NC3CC3)cnn12 [I-271]	–	–
< 50	< 50	0.2 to 1	–	–	CNc1cc(-c2cn(C(C)C)c3ncc(Cl)cc23)nc2c(C(=O)N[C@@H]3C[C@@H]3F)cnn12 (stereo in doubt) [I-254, 5-(5-chloro-1-isopropyl-1H-pyrrolo[2,3-b]pyridin-3-yl)-N-((1R,2S)-2-fluorocyclopropyl)-7-(methylamino)pyrazolo[1,5-a]pyrimidine-3-carboxamide]	–	–
< 50	< 50	0.2 to 1	–	–	CNc1cc(Nc2cccn(C3CCN(C)CC3(F)F)c2=O)nc2c(C(=O)NC3CC3)cnn12 (stereo not drawn) [I-761]	–	–
< 50	< 50	0.2 to 1	–	–	CNc1cc(Nc2cc(C)nc(N3CCC[C@@H](O)C3)c2)nc2c(C(N)=O)cnn12 [I-61]	–	–
–	–	< 0.2	< 50	< 50	CNc1cc(Nc2cccn([C@H]3CCN(CCF)C3)c2=O)nc2c(C(=O)N[C@@H]3C[C@@H]3F)cnn12 [I-934]	–	–
–	–	< 0.2	< 50	< 50	CNc1cc(Nc2cccc(-c3cn(C)nc3F)n2)nc2c(C(=O)N[C@H]3CC[C@H]3O)cnn12 [I-948]	–	–
< 50	< 50	0.2 to 1	–	–	CNc1cc(Nc2cc(C)cnc2OC2CC2)nc2c(C(=O)NC3CCC3)cnn12 [I-278]	–	–
< 50	< 50	< 0.2	–	–	CNc1cc(Nc2cccn([C@H]3CCCOC3)c2=O)nc2c(C(=O)N[C@H]3CC[C@@H]3O)cnn12 [I-697]	–	–
< 50	< 50	< 0.2	–	–	CNc1cc(Nc2cccn(-c3nc(C)co3)c2=O)nc2c(C(=O)NCC(C)CO)cnn12 (stereo not drawn) [I-663]	–	–
–	–	< 0.2	–	–	CNc1cc(Nc2cccn([C@@H]3CCCOC3)c2=O)nc2c(C(=O)N[C@H]3CCC[C@H](O)C3)cnn12 [I-781]	A (percent inhibition at 10 μM lower than 50)	A (percent inhibition at 10 μM lower than 50)
< 50	< 50	1 to 10	–	–	CNc1cc(-c2ccn(-c3ccccc3)n2)nc2c(C(N)=O)cnn12 [I-39, 7-(methylamino)-5-(1-phenyl-1H-pyrazol-3-yl)pyrazolo[1,5-a]pyrimidine-3-carboxamide]	–	–
< 50	< 50	1 to 10	–	–	CNc1cc(Nc2cccnc2OC)nc2c(C(=O)NCCC3CCCO3)cnn12 (stereo not drawn) [I-418, 5-((2-methoxypyridin-3-yl)amino)-7-(methylamino)-N-(2-(tetrahydrofuran-2-yl)ethyl)pyrazolo[1,5-a]pyrimidine-3-carboxamide]	–	–
< 50	< 50	1 to 10	–	–	CNc1cc(Nc2cc(N3CCCC3)nc(C(F)(F)F)c2)nc2c(C(N)=O)cnn12 [I-112]	–	–
< 50	< 50	1 to 10	–	–	CNc1cc(Nc2cccnc2OC2CCCCC2)nc2c(C(=O)NC3CC3)cnn12 [I-221]	–	–
< 50	< 50	< 0.2	–	–	CNc1cc(Nc2cccn(C3CCCOC3)c2=O)nc2c(C(=O)NCC(C)(C)CO)cnn12 (stereo not drawn) [I-571]	–	–
< 50	< 50	< 0.2	–	–	CNc1cc(Nc2cccn3cnnc23)nc2c(C(=O)NC3CC3)cnn12 [I-659]	–	–
< 50	< 50	0.2 to 1	–	–	CNc1cc(Nc2ccnn(-c3ccc(F)cc3)c2=O)nc2c(C(N)=O)cnn12 [I-69]	–	–
< 50	< 50	< 0.2	–	–	CNc1cc(Nc2cccn(C3CCOCC3)c2=O)nc2c(C(=O)NCC(C)(C)CO)cnn12 [I-509]	–	–
< 50	< 50	< 0.2	–	–	CNc1cc(Nc2cccn([C@H]3CCCOC3)c2=O)nc2c(C(=O)NCC(C)(C)CO)cnn12 [I-599]	–	–

Compound	inhibition at 10 µM (JAK2 kinase domain (JH1); compound at 10 μM, ATP 10 μM) [%]	inhibition at 10 µM (Tyk2 kinase domain (DH1); compound at 10 μM, ATP 10 μM) [%]	Kd [1] [nM]	inhibition at 10 µM (JAK2 kinase domain (JH1); 10 μM compound, 10 μM ATP) [%]	inhibition at 10 µM (Tyk2 kinase domain (DH1); 10 μM compound, 10 μM ATP) [%]	JAK2 JH1% Inhibition @ 10 μM (JAK2 kinase domain (JH1); compound at 10 μM, ATP 10 μM)	Tyk2 JH1% Inhibition @ 10 μM (Tyk2 kinase domain (DH1); compound at 10 μM, ATP 10 μM)
CNc1cc(Nc2cccn(-c3cccc(C)n3)c2=O)nc2c(C(=O)NC3CC3)cnn12 [I-237]	< 50	< 50	< 0.2	–	–	–	–
